Earlier results, collected in patent US20020037290A1, “Compositions comprising heat shock proteins or alpha(2) macroglobulin, antigenic molecules and saponins, and methods of use thereof” (priority 2000, published 2002).

What was measured:
[1] = tested on: bovine serum albumin and cytochrome b5; conditions: Kensil et al., 1991, cited from earlier work; for level of antibody response induced: mice, antigens bovine serum albumin and cytochrome b5; for IgG2a response to cytochrome b5: saponin doses of 20 μg
[2] = tested on: murine antiidiotype antibody MELIMMUNE-1; conditions: melanoma patients; Livingston et al., 1995; cited from earlier work
[3] = mouse, in vivo; cited from earlier work
UV6138 carcinoma = conditions: cited from earlier work
UV6139SJ carcinoma [4] = conditions: prior experiments, cited from earlier work; for tumor growth, monitored as the average of two perpendicular diameter measurements: U.S. Pat. No. 5,837,251, established UV6139SJ carcinoma
UV6139SJ carcinoma [5] = conditions: cited from earlier work
[6] = previously shown, U.S. Pat. No. 5,837,251
[7] = prior result of U.S. Pat. No. 5,837,251, resistant mice out of mice challenged

## QS-17
[1]
  level of antibody response induced: comparable to other commonly used adjuvants
  IgG2a response to cytochrome b5: stimulate IgG2a response

## QS-18
[1]
  level of antibody response induced: comparable to other commonly used adjuvants
  IgG2a response to cytochrome b5: stimulate IgG2a response

## QS-21
[1]
  level of antibody response induced: comparable to other commonly used adjuvants
  IgG2a response to cytochrome b5: stimulate IgG2a response
[2]
  serological response to MELIMMUNE-1: significantly increased
[3]
  toxicity in mice: least toxic

B1: gp96 derived from the UV6138: heat shock protein gp96(-peptide complex) preparation isolated from the UV-induced UV6138 mouse carcinoma (protein, UniProt P08113 22-802, looked up)
Endoplasmin: DDEVDVDGTVEEDLGKSREGSRTDDEVVQREEEAIQLDGLNASQIRELREKSEKFAFQAEVNRMMKLIINSLYKNKEIFLRELISNASDALDKIRLISLTDENALAGNEELTVKIKCDKEKNLLHVTDTGVGMTREELVKNLGTIAKSGTSEFLNKMTEAQEDGQSTSELIGQFGVGFYSAFLVADKVIVTSKHNNDTQHIWESDSNEFSVIADPRGNTLGRGTTITLVLKEEASDYLELDTIKNLVRKYSQFINFPIYVWSSKTETVEEPLEEDEAAKEEKEESDDEAAVEEEEEEKKPKTKKVEKTVWDWELMNDIKPIWQRPSKEVEEDEYKAFYKSFSKESDDPMAYIHFTAEGEVTFKSILFVPTSAPRGLFDEYGSKKSDYIKLYVRRVFITDDFHDMMPKYLNFVKGVVDSDDLPLNVSRETLQQHKLLKVIRKKLVRKTLDMIKKIADEKYNDTFWKEFGTNIKLGVIEDHSNRTRLAKLLRFQSSHHSTDITSLDQYVERMKEKQDKIYFMAGSSRKEAESSPFVERLLKKGYEVIYLTEPVDEYCIQALPEFDGKRFQNVAKEGVKFDESEKTKESREATEKEFEPLLNWMKDKALKDKIEKAVVSQRLTESPCALVASQYGWSGNMERIMKAQAYQTGKDISTNYYASQKKTFEINPRHPLIRDMLRRIKEDEDDKTVMDLAVVLFETATLRSGYLLPDTKAYGDRIERMLRLSLNIDPEAQVEEEPEEEPEDTSEDAEDSEQDEGEEMDAGTEEEEEETEKESTEKDEL
modifications: bound tumor peptides
notes: heat shock protein gp96(-peptide complex) preparation isolated from the UV-induced UV6138 mouse carcinoma
UV6138 carcinoma; [6]
  immunity to the UV6138 challenge: rendered the mice immune
UV6138 carcinoma; [7]
  resistance conferred against the UV6138 cells: 6 out of 7

B2: liver-derived gp96: gp96-peptide complex derived from normal liver (protein, UniProt P08113 22-802, looked up)
Endoplasmin: DDEVDVDGTVEEDLGKSREGSRTDDEVVQREEEAIQLDGLNASQIRELREKSEKFAFQAEVNRMMKLIINSLYKNKEIFLRELISNASDALDKIRLISLTDENALAGNEELTVKIKCDKEKNLLHVTDTGVGMTREELVKNLGTIAKSGTSEFLNKMTEAQEDGQSTSELIGQFGVGFYSAFLVADKVIVTSKHNNDTQHIWESDSNEFSVIADPRGNTLGRGTTITLVLKEEASDYLELDTIKNLVRKYSQFINFPIYVWSSKTETVEEPLEEDEAAKEEKEESDDEAAVEEEEEEKKPKTKKVEKTVWDWELMNDIKPIWQRPSKEVEEDEYKAFYKSFSKESDDPMAYIHFTAEGEVTFKSILFVPTSAPRGLFDEYGSKKSDYIKLYVRRVFITDDFHDMMPKYLNFVKGVVDSDDLPLNVSRETLQQHKLLKVIRKKLVRKTLDMIKKIADEKYNDTFWKEFGTNIKLGVIEDHSNRTRLAKLLRFQSSHHSTDITSLDQYVERMKEKQDKIYFMAGSSRKEAESSPFVERLLKKGYEVIYLTEPVDEYCIQALPEFDGKRFQNVAKEGVKFDESEKTKESREATEKEFEPLLNWMKDKALKDKIEKAVVSQRLTESPCALVASQYGWSGNMERIMKAQAYQTGKDISTNYYASQKKTFEINPRHPLIRDMLRRIKEDEDDKTVMDLAVVLFETATLRSGYLLPDTKAYGDRIERMLRLSLNIDPEAQVEEEPEEEPEDTSEDAEDSEQDEGEEMDAGTEEEEEETEKESTEKDEL
modifications: bound peptides
UV6139SJ carcinoma [4]
  tumor growth, monitored as the average of two perpendicular diameter measurements: not

B3: gp96 derived from the UV6139: gp96-peptide complex derived from UV6139SJ carcinoma cells (protein, UniProt P08113 22-802, looked up)
Endoplasmin: DDEVDVDGTVEEDLGKSREGSRTDDEVVQREEEAIQLDGLNASQIRELREKSEKFAFQAEVNRMMKLIINSLYKNKEIFLRELISNASDALDKIRLISLTDENALAGNEELTVKIKCDKEKNLLHVTDTGVGMTREELVKNLGTIAKSGTSEFLNKMTEAQEDGQSTSELIGQFGVGFYSAFLVADKVIVTSKHNNDTQHIWESDSNEFSVIADPRGNTLGRGTTITLVLKEEASDYLELDTIKNLVRKYSQFINFPIYVWSSKTETVEEPLEEDEAAKEEKEESDDEAAVEEEEEEKKPKTKKVEKTVWDWELMNDIKPIWQRPSKEVEEDEYKAFYKSFSKESDDPMAYIHFTAEGEVTFKSILFVPTSAPRGLFDEYGSKKSDYIKLYVRRVFITDDFHDMMPKYLNFVKGVVDSDDLPLNVSRETLQQHKLLKVIRKKLVRKTLDMIKKIADEKYNDTFWKEFGTNIKLGVIEDHSNRTRLAKLLRFQSSHHSTDITSLDQYVERMKEKQDKIYFMAGSSRKEAESSPFVERLLKKGYEVIYLTEPVDEYCIQALPEFDGKRFQNVAKEGVKFDESEKTKESREATEKEFEPLLNWMKDKALKDKIEKAVVSQRLTESPCALVASQYGWSGNMERIMKAQAYQTGKDISTNYYASQKKTFEINPRHPLIRDMLRRIKEDEDDKTVMDLAVVLFETATLRSGYLLPDTKAYGDRIERMLRLSLNIDPEAQVEEEPEEEPEDTSEDAEDSEQDEGEEMDAGTEEEEEETEKESTEKDEL
modifications: bound tumor peptides
notes: gp96-peptide complex derived from UV6139SJ carcinoma cells
UV6139SJ carcinoma [5]; [6]
  immunity to the UV6139SJ challenge: conferred resistance
UV6139SJ carcinoma [5]; [7]
  resistance conferred against the UV6139SJ cells: 2 out of 4
UV6139SJ carcinoma [4]
  tumor growth, monitored as the average of two perpendicular diameter measurements: significantly retarded
UV6139SJ carcinoma [4]; effect appears to diminish after treatment is terminated
  kinetics of tumor growth in treated and control mice: immediate inhibitory effect on tumor growth
